From ChEMBL document CHEMBL1133339, “Leukotriene B4 photoaffinity probes: design, synthesis and evaluation of new arylazide-1,3-disubstituted cyclohexanes” (Bioorg Med Chem Lett, 2000)

molecular target: Leukotriene B4 receptor 1 (Homo sapiens, UniProt Q15722); experiment: Compound was tested for inhibition against binding of radioligand [3H]LTB4 to Leukotriene B4 receptor in human neutrophil membranes; format: cell membranes
Sequence (Q15722 whole entry): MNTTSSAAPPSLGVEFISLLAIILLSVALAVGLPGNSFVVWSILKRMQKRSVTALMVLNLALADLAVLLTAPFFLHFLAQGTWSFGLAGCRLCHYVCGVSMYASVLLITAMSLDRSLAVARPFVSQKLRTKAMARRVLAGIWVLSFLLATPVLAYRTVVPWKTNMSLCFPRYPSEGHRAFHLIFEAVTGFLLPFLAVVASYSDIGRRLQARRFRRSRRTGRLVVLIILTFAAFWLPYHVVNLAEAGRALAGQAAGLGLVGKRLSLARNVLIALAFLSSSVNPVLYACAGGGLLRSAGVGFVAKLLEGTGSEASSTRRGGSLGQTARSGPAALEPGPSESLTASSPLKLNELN

| IC50 | SMILES |
| --- | --- |
| > 10000 nM | CN(C)C(=O)CC1(O)CCCC(/C=C/C(O)CCCCc2ccc(N=[N+]=[N-])c(I)c2)C1 (stereo in doubt; 6b) |
| 6000 nM | CN(C)C(=O)CC1(O)CCCC(/C=C/C(O)CCCCc2ccc(N=[N+]=[N-])c(I)c2)C1 (stereo in doubt) |
| > 10000 nM | [N-]=[N+]=Nc1ccc(CCCCC(O)/C=C/C2CCCC(O)(CC(=O)O)C2)cc1I (stereo not drawn) |
| 2000 nM | CN(C)C(=O)CC1(O)CCCC(/C=C/C(O)CCCCc2ccc(N=[N+]=[N-])cc2)C1 (stereo in doubt; 4b) |
| 700 nM | CN(C)C(=O)CC1(O)CCCC(/C=C/C(O)CCCCc2ccc(N=[N+]=[N-])cc2)C1 (stereo in doubt) |
| 2000 nM | [N-]=[N+]=Nc1ccc(CCCCC(O)/C=C/C2CCCC(O)(CC(=O)O)C2)cc1 (stereo not drawn) |
| 300 nM | O=C(O)CC1(O)CCCC(/C=C/C(O)CCCCc2ccccc2)C1 (stereo not drawn) |

| SMILES | IC50 |
| --- | --- |
| CN(C)C(=O)CC1(O)CCCC(/C=C/C(O)CCCCc2ccccc2)C1 (stereo not drawn) | 40 nM |
